As usually defined, the IC50 is the concentration needed to halve the response being measured. A higher IC50 goes with weaker potency in that assay.

One assay has as its system SW480. The settings on record: colon cancer cell line SW480; cited from earlier work.
Another assay relates to HT29. Conditions: colon cancer cell line HT29; cited from earlier work.
The next assay relates to pancreatic cancer. Conditions: cited from earlier work.
For another assay, the system named is PANC-1 cells. Conditions: cited from earlier work.
The test system of assay [1] is pancreatic tumor cell line MIA PaCa2. Nature of the assay: live-cell staining with Calcein AM in 3-dimentional tumor model (HuBiogel). The class given is cell-based. The settings on record: MIA PaCa2 3-D tumor beads, Day 3. How it is done: (§1) The compound sodium trans-[tetrachlorobis(1H-indazole)ruthenate(III)] was tested in a 3-dimentional tumor model derived from pancreatic tumor cell line MIA PaCa2. Specifically, cells were trypsinized, washed, counted by trypan blue exclusion. Tumor beads were then prepared by mixing 20,000 cells/10 μl of HuBiogel (4 mg/mL) (See U.S. patent application Ser. No. 10/546,506, which is incorporated herein by reference). The 3-D tumor beads were cultivated for 72 hours in multi-well plates with complete media (10% FBS) in a 37° C. incubator+5% CO2. Mini-tumors were treated with various concentrations of the test compound sodium trans-[tetrachlorobis(1H-indazole)ruthenate(III)] in media (final 0.2-0.3% DMSO) or control (DMSO). Repeated drug treatment was done by removing the culture media and replacing with fresh media with drug compound or DMSO. On Day 3, MTT assay and live-cell staining with Calcein AM were performed (5 beads/assay set).
(§2) Statistical analysis of data sets (Average, T-test, GI-50) was performed using MS-Excel program.

A further assay deals with PANC-1. On the procedure: (§3) To test the activities of sodium trans-[tetrachlorobis(1H-indazole)ruthenate(III)], ATCC's MTT Cell Proliferation Assay® was performed using human pancreatic cancer cell lines PANC-1 and Capan-1. Stock cultures were allowed to grow to 70-80% confluence for this study. The anti-proliferative activity of sodium trans-[tetrachlorobis(1H-indazole)ruthenate(III)], against the indicated cell lines was evaluated in vitro using the ATCC's MTT Cell Proliferation Assay (Catalog No. 30-1010K). PANC-1 cells were grown in DMEM medium with 10% FBS and 1% pen/strep/glutamine. Capan-1 cells were grown using IMDM medium 20% FBS and 1% of pen/strep/glutamine. Panc 1 and Capan-1 cell plates were seeded with 6000 cells/well and 15,000 cells/well, respectively, and treated with sodium trans-[tetrachlorobis(1H-indazole)ruthenate(III)] at 1,000 μM, or a series of 4× dilutions thereof (250 μM, 62.5 μM, etc.). 100 μl of medium was removed from each well at 72 hours post-treatment and MTT reagent was added to each well. The plates were incubated plate at 37° C. for 4 hours and then 100 μl of detergent was added. The plates were left overnight at room temperature in the dark and was read on a plate reader using SoftMax® Pro (version 5.2, Molecular Devices).
(§4) The absorbance data was analyzed as follows: Absorbance values were converted to Percent of Control and plotted against test agent concentrations for IC50 calculations using SoftMax® Pro (version 5.2, Molecular Devices). The plate blank signal average was subtracted from all wells prior to calculating the Percent of Control. Percent of Control values were calculated by dividing the absorbance values for each test well by the No Drug Control average (column 11 values; cells+vehicle control) and multiplying by 100. Plots of Compound Concentration versus Percent of Control were analyzed using the 4-parameter equation to obtain IC50 values and other parameters that describe the sigmoidal dose response curve.
(§5) The IC50 value for the test agents was estimated by curve-fitting the data using the following four parameter-logistic equation: […]

The test system of another assay is Capan-1. Conditions: Capan-1, 72 hours post-treatment, MTT. On the procedure: as §3, §4, §5
Assay [2] concerns pancreatic tumor cell line MIA PaCa2. The assay can be described thus: MTT assay in 3-dimentional tumor model (HuBiogel). The assay is classed as cell-based. Conditions: MIA PaCa2 3-D tumor beads. How it is done: as §1, §2
In general terms: Formazan colour is commonly taken as a measure of viable cells.

For `[Cl-].[Cl-].[Cl-].[Cl-].[Ru+3].c1ccc2[nH][nH+]cc2c1.c1ccc2[nH]ncc2c1.c1ccc2[nH]ncc2c1` [Indazolium trans-[tetrachlorobis(1H-indazole)ruthenate(III)], reference compound], the killing tumor cells result with SW480 and in the assay on HT29 was “effective in killing tumor cells” each time.

For the compound `C#Cc1cccc(Nc2ncnc3cc(OCCOC)c(OCCOC)cc23)c1` [erlotinib], the “median overall survival benefit” value with pancreatic cancer (erlotinib in combination with gemcitabine, advanced-stage pancreatic cancer patients) was “less than four weeks”. The “sensitivity of PANC-1 cells to the drug” value in the assay on PANC-1 cells is recorded as “resistant”.

Consider `Nc1ccn([C@@H]2O[C@H](CO)[C@@H](O)C2(F)F)c(=O)n1` [gemcitabine], for which the “efficacy in pancreatic cancer” value with pancreatic cancer (weekly intravenous administration) is on record as “effective”. For the same compound, the “sensitivity of PANC-1 cells to the drug” value in the assay on PANC-1 cells is on record as “resistant”.

Take `[Cl][Ru-]([Cl])([Cl])[Cl].[Na+].c1ccc2[nH]ncc2c1.c1ccc2[nH]ncc2c1` [sodium trans-[tetrachlorobis(1H-indazole)ruthenate(III)]]: the killing tumor cells entry with SW480 and in the assay with HT29 was “effective in killing tumor cells” each time. Besides, the “tumor killing in live-cell staining/image analysis” value in assay [1] is reported as “dose-dependent tumor killing effective”. In addition, the IC50 with PANC-1 (PANC-1, 72 hours post-treatment, MTT) is 30.6 µM; in the assay on Capan-1 it was 45.2 µM. Also, the “activity in cells resistant to gemcitabine and erlotinib” value in the assay with PANC-1 (PANC-1 cells) is reported as “active”. Besides, in assay [2] (Day 3, FIG. 1), the “tumor proliferation activity (MTT)” value is on record as “significantly inhibited tumor proliferation activity”. The GI50 in assay [2] (MTT assay on Day 3, read-out: average GI-50 (the drug concentration required for growth inhibition at 50%)) was 35.7 µM.
